Each molecule was assayed against T1, KRAS G12C 1-169, his-tagged protein, GDP-loaded (Homo sapiens, UniProt P01116, G12C) (assay: Covalent binding (% modification) to KRAS G12C by mass spectrometry). Settings: covalent binding to KRAS G12C after a ten minute incubation period.
T1 construct: KRAS G12C 1-169, his-tagged protein, GDP-loaded
Note: test concentration or dose not given here.

`C=CC(=O)N1CCN(c2nc(N)nc3c(F)c(-c4c(O)cccc4F)c(Cl)cc23)C[C@H]1C` [Compound 1, 1-((2R)-4-(2-amino-6-chloro-8-fluoro-7-(2-fluoro-6-hydroxyphenyl)quinazolin-4-yl)-2-methylpiperazin-1-yl)prop-2-en-1-one] was tested. Which Binding % did it give?
Its Binding % is “++ (++ indicates binding activity from 50 to 90%)”.

`C=CC(=O)N1C(C)CN(c2nc(N)nc3c(F)c(-c4c(O)cccc4F)c(Cl)cc23)CC1C` (stereo not drawn) [Compound 2, 1-(4-(2-amino-6-chloro-8-fluoro-7-(2-fluoro-6-hydroxyphenyl)quinazolin-4-yl)-2,6-dimethyl-piperazin-1-yl) prop-2-en-1-one] was tested. Which Binding % did it give?
Its Binding % is “++ (++ indicates binding activity from 50 to 90%)”.

How did the Binding % turn out when `C=CC(=O)N1CCN(c2nc(N)nc3c(F)c(-c4c(O)cccc4F)c(Cl)cc23)C[C@@H]1C` [Compound 3, 1-((2S)-4-(2-amino-6-chloro-8-fluoro-7-(2-fluoro-6-hydroxyphenyl)quinazolin-4-yl)-2-methylpiperazin-1-yl)prop-2-en-1-one] was run?
The Binding % was “++ (++ indicates binding activity from 50 to 90%)”.

For `C=CC(=O)N1CCN(c2nc(N)nc3c(F)c(-c4c(O)cccc4F)c(Cl)cc23)[C@@H](C)C1` [Compound 4, 1-((3S)-4-(2-amino-6-chloro-8-fluoro-7-(2-fluoro-6-hydroxyphenyl)quinazolin-4-yl)-3-methylpiperazin-1-yl)prop-2-en-1-one], which Binding % is on record?
The Binding % was “++ (++ indicates binding activity from 50 to 90%)”.

For `C=CC(=O)N1CCN(c2nc(N)nc3c(F)c(-c4c(C)ccc5cn[nH]c45)c(Cl)cc23)[C@@H](C)C1` [Compound 5, 1-((3S)-4-(2-amino-6-chloro-8-fluoro-7-(6-methyl-1H-indazol-7-yl)quinazolin-4-yl)-3-methylpiperazin-1-yl)prop-2-en-1-one], which Binding % is on record?
The Binding % was “++ (++ indicates binding activity from 50 to 90%)”.

With `C=CC(=O)N1[C@H](C)CN(c2nc(N)nc3c(F)c(-c4c(C)ccc5cn[nH]c45)c(Cl)cc23)C[C@@H]1C` [Compound 6, 1-((2S,6R)-4-(2-amino-6-chloro-8-fluoro-7-(6-methyl-1H-indazol-7-yl)quinazolin-4-yl)-2,6-dimethyl-piperazin-1-yl) prop-2-en-1-one] as the molecule, how does the Binding % read?
Its Binding % is “++ (++ indicates binding activity from 50 to 90%)”.

Which Binding % does the source give for `C=CC(=O)N1[C@H](C)CN(c2nc(N)nc3c(F)c(-c4cc(O)cc5ccccc45)c(Cl)cc23)C[C@@H]1C` [Compound 7, 1-((2S,6R)-4-(2-amino-6-chloro-8-fluoro-7-(3-hydroxynaphthalen-1-yl)quinazolin-4-yl)-2,6-dimethyl-piperazin-1-yl) prop-2-en-1-one] here?
The Binding % was “++ (++ indicates binding activity from 50 to 90%)”.

With `C=CC(=O)N1CCN(c2nc(N3CC(N(C)C)C3)nc3c(F)c(-c4c(O)cccc4F)c(Cl)cc23)[C@@H](C)C1` [Compound 8, 1-((3 S)-4-(6-Chloro-2-(3-(Dimethylamino)Azetidin-1-Yl)-8-Fluoro-7-(2-Fluoro-6-Hydroxyphenyl)Quinazolin-4-Yl)-3-Methylpiperazin-1-Yl)Prop-2-En-1-One] as the molecule, how does the Binding % read?
The Binding % was “+++ (+++ indicates binding activity greater than 90%)”.

For `C=CC(=O)N1CCN(c2nc(OCCN(CC)CC)nc3c(F)c(-c4c(O)cccc4F)c(Cl)cc23)[C@@H](C)C1` [Compound 9, 1-((3S)-4-(6-chloro-2-(2-(diethylamino)ethoxy)-8-fluoro-7-(2-fluoro-6-hydroxyphenyl)quinazolin-4-yl)-3-methylpiperazin-1-yl)prop-2-en-1-one], which Binding % is on record?
The Binding % was “++ (++ indicates binding activity from 50 to 90%)”.

Which Binding % does the source give for `C=CC(=O)N1CCN(c2nc(N)nc3c(F)c(-c4c(C)ccc5[nH]ncc45)c(Cl)cc23)[C@@H](C)C1` [Compound 10, 1-((3S)-4-(2-amino-6-chloro-8-fluoro-7-(5-methyl-1H-indazol-4-yl)quinazolin-4-yl)-3-methyl-piperazin-1-yl) prop-2-en-1-one] here?
Its Binding % is “+++ (+++ indicates binding activity greater than 90%)”.

`C=CC(=O)N1CCN(c2nc(OCCN3CC(F)(F)C3)nc3c(F)c(-c4c(O)cccc4F)c(Cl)cc23)[C@@H](C)C1` [Compound 11, 1-((3S)-4-(6-chloro-2-(2-(3,3-difluoroazetidin-1-yl)ethoxy)-8-fluoro-7-(2-fluoro-6-hydroxyphenyl)quinazolin-4-yl)-3-methylpiperazin-1-yl)prop-2-en-1-one] was tested. Which Binding % did it give?
Its Binding % is “+++ (+++ indicates binding activity greater than 90%)”.

With `C=CC(=O)N1CCN(c2nc(N)nc3c(F)c(-c4cc(O)cc5ccccc45)c(Cl)cc23)[C@@H](C)C1` [Compound 12, 1-((3 S)-4-(2-Amino-6-Chloro-8-Fluoro-7-(3-Hydroxynaphthalen-1-Yl)Quinazolin-4-Yl)-3-Methylpiperazin-1-Yl)Prop-2-En-1-One] as the molecule, how does the Binding % read?
Its Binding % is “+++ (+++ indicates binding activity greater than 90%)”.

`C=CC(=O)N1[C@H](C)CN(c2nc(N)nc3c(F)c(-c4c(C)ccc5cn[nH]c45)c(Cl)cc23)C[C@@H]1C` [Compound 15, 1-((2S,6R)-4-(2-amino-6-chloro-8-fluoro-7-(6-methyl-1H-indazol-7-yl)quinazolin-4-yl)-2,6-dimethyl-piperazin-1-yl) prop-2-en-1-one] was tested. Which Binding % did it give?
The Binding % was “++ (++ indicates binding activity from 50 to 90%)”.

With `C=CC(=O)N1C[C@@H](C)N(c2nc(OCCN(CC)CC)nc3c(F)c(-c4c(O)cccc4F)c(Cl)cc23)[C@@H](C)C1` [Compound 16, 1-((3S,5R)-4-(6-chloro-2-(2-(diethylamino)ethoxy)-8-fluoro-7-(2-fluoro-6-hydroxyphenyl)quinazolin-4-yl)-3,5-dimethylpiperazin-1-yl)prop-2-en-1-one] as the molecule, how does the Binding % read?
Its Binding % is “++ (++ indicates binding activity from 50 to 90%)”.

With `C=CC(=O)N1C[C@@H](C)N(c2nc(N)nc3c(F)c(-c4c(O)cccc4F)c(Cl)cc23)[C@@H](C)C1` [Compound 17, 1-((3S,5R)-4-(2-amino-6-chloro-8-fluoro-7-(2-fluoro-6-hydroxyphenyl)quinazolin-4-yl)-3,5-dimethylpiperazin-1-yl)prop-2-en-1-one] as the molecule, how does the Binding % read?
Its Binding % is “++ (++ indicates binding activity from 50 to 90%)”.

`C=CC(=O)N1C[C@@H](C)N(c2nc(N)nc3c(F)c(-c4cc(O)cc5ccccc45)c(Cl)cc23)[C@@H](C)C1` [Compound 18, 1-((3S,5R)-4-(2-amino-6-chloro-8-fluoro-7-(3-hydroxynaphthalen-1-yl)quinazolin-4-yl)-3,5-dimethyl-piperazin-1-yl) prop-2-en-1-one] was tested. Which Binding % did it give?
The Binding % was “++ (++ indicates binding activity from 50 to 90%)”.

For `C=CC(=O)N1[C@H](C)CN(c2nc(NC3CCN(C4CC4)CC3)nc3c(F)c(-c4c(C)ccc5cn[nH]c45)c(Cl)cc23)C[C@@H]1C` [Compound 19, 1-((2S,6R)-4-(6-Chloro-2-((1-Cyclopropylpiperidin-4-Yl)Amino)-8-Fluoro-7-(6-Methyl-1H-Indazol-7-Yl)Quinazolin-4-Yl)-2,6-Dimethylpiperazin-1-Yl)Prop-2-En-1-One], which Binding % is on record?
The Binding % was “++ (++ indicates binding activity from 50 to 90%)”.

Same assay, conditions: covalent binding to KRAS G12C after a three minute incubation period

For `[2H]C([2H])([2H])N(C1CN(c2nc(N3C[C@@H](C)N(C(=O)C=C)C[C@@H]3C)c3cc(Cl)c(-c4cc(O)cc5ccccc45)c(F)c3n2)C1)C([2H])([2H])[2H]` (atropisomer, axis not shown) [Compound 229], which Binding % is on record?
Its Binding % is “+ (+ indicates binding activity greater than 0% and up to 50%)”.

Source: patent US10646488B2 (Araxes Pharma LLC, priority 2016, dated 2020)
